Patent US7772208B2, “2′,3′-dideoxynucleoside analogues for the treatment or prevention of Flaviviridae infections” (Pharmasset, Inc., priority 2002, dated 2010)
Counter-ions that a name gives are not always drawn.

What was measured:
HCV protease = conditions: SDS-PAGE and autoradiography assay; cited from earlier work
[1] = target: T1, NS5B enzyme (HCV polymerase, NS5Bt) (Hepatitis C virus genotype 1a, UniProt P27958); experiment: HCV polymerase (RdRp) inhibition assay; format: biochemical; conditions: for inhibition when treated: FIG. 4; for change of inhibition with increase in manganese concentration: FIG. 5
T1 construct: added a methionine and alanine to the N terminus and truncated the C-terminal 21 amino acids, replacing them with a hexahistidine tag; hexahistidine (C); made in house; host or cells: E. coli BL21(DE3)pLysS, plasmid pRSK1 in pET32a
Text: The HCV NS5B gene was amplified from a genotype 1A, clone, p134/pBRTM 2029-3011 (ΔAvrII). The primers used added a methionine and alanine to the N terminus and truncated the C-terminal 21 amino acids, replacing them with a hexahistidine tag, which allowed increased soluble product in E. coli and metal affinity purification. The PCR product was cloned into the pET32a expression construct (Novagen) at the NcoI and BamHI sites and the resultant plasmid (pRSK1) was sequenced by the Stanford PAN facility using standard methods. […] (DE3)pLysS cells (Novagen) were transformed by pRSK1 and grown at 37° C. to an optical density of 0.1, at which time the cells were switched to room temperature. At an optical density of 0.3-0.5, isopropyl-β-D-thiogalactopyanoside was added to a final concentration of 0.5 mM and the cells were harvested after 6 h. The cell pellet was frozen, thawed and resuspended in buffer containing 50 mM sodium phosphate pH 7.0, 10% glycerol, 0.3 M NaCl, 2 mM β-mercaptoethanol, 0.5% β-octyl-glucoside. The cell extract was sonicated, and cellular debris removed by centrifugation. The extract was incubated batch-wise with Talon metal affinity resin (Clontech), washed extensively with the above buffer, and then poured into a column for a stepwise imidazole elution. The polymerase, referred to as NS5Bt, eluted specifically between 70 mM and 250 mM imidazole and was ˜90% pure.
RdRp assays were a modification of the assays described in Kao et al. (Kao, C, C.; Yang, X.; Kline, A.; Wang, Q. M.; Barket, D.; Heinz, B. A. (2000) J. Virol. 74, 11121-11128). The template used allows for de novo synthesis and has its 3′ termini blocked by puromycin, which largely prevents the high molecular weight product from forming and allows for predominantly 24- and 25-nucleotide products to be seen. Each reaction contained 50 mM Hepes-NaOH pH 8.0, 0.65 μM template, 0.1 μM purified NS5Bt described above, 250 μM GTP, 5 μM UTP, 0.6 μM CTP, and 1 μM [αP32] ATP, 0.5 mM MnCl2, 7 mM MgCl2, 18 mM DTT, and the stated concentration of the analog. Reaction mixes were incubated at 27° C. for 45 min. Reactions were terminated by the addition of ⅕ the volume of 5× proteinase K mix (250 μg proteinase K/ml [Sigma, St Louis, Mo.], 375 mM Hepes-NaOH pH 8, 0.5% SDS, 25 mM EDTA) and incubated for 10 min at 37° C. Reactions were then precipitated with isopropanol, and glycogen as a carrier, and washed twice with 70% ethanol to remove salt. The RNA was resuspended in formamide loading buffer, heated to 65° C. for 3 min and loaded on a 20% acrylamide/7 M urea/TBE denaturing gel and separated by electrophoresis at 50° C. Quantification of bands was performed using Phosphoimager analysis.

T1 sequence (P27958 2421-2990): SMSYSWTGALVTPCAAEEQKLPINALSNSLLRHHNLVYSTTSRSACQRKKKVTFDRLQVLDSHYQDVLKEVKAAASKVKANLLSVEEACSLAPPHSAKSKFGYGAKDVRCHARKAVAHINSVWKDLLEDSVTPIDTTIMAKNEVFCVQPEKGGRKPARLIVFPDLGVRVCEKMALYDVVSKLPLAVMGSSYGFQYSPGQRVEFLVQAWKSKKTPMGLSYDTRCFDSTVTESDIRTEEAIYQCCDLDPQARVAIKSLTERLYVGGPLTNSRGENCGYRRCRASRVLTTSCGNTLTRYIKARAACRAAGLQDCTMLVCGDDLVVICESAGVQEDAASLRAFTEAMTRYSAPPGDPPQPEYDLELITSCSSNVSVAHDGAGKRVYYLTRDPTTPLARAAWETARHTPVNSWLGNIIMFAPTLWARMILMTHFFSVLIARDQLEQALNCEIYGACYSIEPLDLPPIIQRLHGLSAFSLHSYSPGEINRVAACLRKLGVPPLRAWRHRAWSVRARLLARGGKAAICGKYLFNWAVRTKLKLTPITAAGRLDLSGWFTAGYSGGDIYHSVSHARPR

CCCC(=O)c1cc2c(c(O)c1C)C(=O)C(=O)c1c(O)cccc1-2 [Sch 68631]
activity against HCV protease (HCV protease): micromolar activity

Nc1nc(=O)n([C@@H]2CC[C@H](CO)O2)cc1F [L-ddFC, β-L-2′,3′-Dideoxy-5-fluorocytidine]
inhibition when treated [1]: dose-dependent inhibition | change of inhibition with increase in manganese concentration [1]: increase of inhibition

Nc1nc(=O)n([C@@H]2CC[C@H](COP(=O)(O)OP(=O)(O)OP(=O)(O)O)O2)cc1F [β-L-ddFC triphosphate, β-L-2′,3′-Dideoxy-5-fluorocytidine triphosphate, triethylammonium salt]
inhibition of NS5B enzyme ([1]; FIG. 2 and FIG. 3, triphosphate): dose-dependent inhibition

Nc1ccn([C@@H]2CC[C@H](CO)O2)c(=O)n1 [L-ddC, β-L-2′,3′-dideoxycytidine]
inhibition when treated [1]: no inhibition | change of inhibition with increase in manganese concentration [1]: not affected
